Results published in patent US6451857B1, “Analgesic compositions comprising anti-epileptic compounds and methods of using same” (Warner-Lambert Company, priority 1999, dated 2002).

Test system: carrageenan-induced thermal hyperalgesia
Assay: Carrageenan rat footpad thermal hyperalgesia test (Hargreaves test)
Type: in vivo
Description: The aim of this experiment was to characterize the antinociceptive and anti-inflammatory effects of gabapentin administered in combination with a prototypic NSAID in the rat. […] This assay utilizes an extract of seaweed (carrageenan) that, when injected into the footpad of test animals, causes a sterile inflammation, thereby lowering the pain threshold.
Male Sprague-Dawley rats (200-250 g, Sasco Laboratories) were used. Rats were group housed 5/cage on a 12-hour light:dark cycle with free access to food and water. Rats received only one dose of a drug or drug combination. All drugs were administered orally by gavage.
Dose-effect curves were first determined for (1) gabapentin by itself and (2) a prototypic NSAID (e.g., naproxen) by itself. The ED50 value and 95% confidence limits of each agent was determined, as was the time to peak effect. […]
Carrageenan-induced thermal hyperalpesia: Rats were acclimated to a testing chamber whose glass floor was maintained at 25° C. Thirty minutes later, a high intensity beam of light was focused through the glass on the ventral surface of each hindpaw, and the latency to reflex withdrawal of the paw from the light beam was measured to the nearest 0.1 second. […] Response latencies for the ipsilateral and contralateral hindpaws were then re-determined 15, 30, 45, 60, 90 and 120 minutes later. […]
Data were expressed as the mean ±SEM. […]

## COc1ccc2cc([C@H](C)C(=O)O)ccc2c1 [Naproxen sodium, naproxen sodium]
PO, gabapentin 3-100 mg/kg, naproxen sodium 0.3-30 mg/kg, combinations in fixed ratio
  anti-hyperalgesic action: caused anti-hyperalgesic actions
Rattus norvegicus, 2 h, single drug, oral gavage, male Sprague-Dawley rats, data 120 min after dosing, 95% confidence limits in parentheses
  ED50: 0.36 mg/kg
